In US20220315572A1, “SUBSTITUTED CYANOPYRROLIDINES WITH ACTIVITY AS USP30 INHIBITORS” (MISSION THERAPEUTICS LIMITED, priority 2019, published 2022):

How the values were obtained:
USP30 = target: T1, USP30 (Homo sapiens, UniProt Q70CQ3); assay: USP30 biochemical IC50 assay (fluorescence polarisation); conditions: for IC50: USP30 biochemical IC50 assay, exemplary compounds, read-out: IC50; for fold more potent against USP30 than Reference Example A: v Reference Example A; for fold more potent against USP30 than Reference Example E: v Reference Example E; for fold more potent against USP30 than Reference Example F: v Reference Example F; for fold more potent against USP30 than Reference Example G: v Reference Example G
T1 construct: purchased Boston Biochem E582
T1 sequence (Q70CQ3 57-517 limits assumed): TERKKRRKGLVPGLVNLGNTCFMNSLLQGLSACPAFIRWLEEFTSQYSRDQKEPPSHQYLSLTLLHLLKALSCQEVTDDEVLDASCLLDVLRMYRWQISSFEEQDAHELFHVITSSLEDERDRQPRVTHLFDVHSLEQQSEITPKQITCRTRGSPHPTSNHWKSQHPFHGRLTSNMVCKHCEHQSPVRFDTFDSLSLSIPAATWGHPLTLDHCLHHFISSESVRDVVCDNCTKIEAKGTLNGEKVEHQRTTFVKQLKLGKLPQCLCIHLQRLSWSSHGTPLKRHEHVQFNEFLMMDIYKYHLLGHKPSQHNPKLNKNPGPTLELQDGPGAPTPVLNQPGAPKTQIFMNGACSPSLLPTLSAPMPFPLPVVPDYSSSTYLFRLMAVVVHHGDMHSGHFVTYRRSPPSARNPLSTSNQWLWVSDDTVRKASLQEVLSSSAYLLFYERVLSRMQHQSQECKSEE
Experimental: Dilution plates were prepared at 21 times the final concentration (2100 μM for a final concentration of 100 μM) in 50% DMSO in a 96-well polypropylene V-bottom plate (Greiner #651201). A typical 8-point dilution series would be 100, 30, 10, 3, 1, 0.3, 0.1, 0.03 μM final. Reactions were performed in duplicate in black 384 well plates (small volume, Greiner 784076) in a final reaction volume of 21 μl. Either […] of 50% DMSO or diluted compound was added to the plate. USP30 (Boston Biochem #E582) was diluted in reaction buffer (40 mM Tris, pH 7.5, 0.005% Tween 20, 0.5 mg/ml BSA, 5 mM beta-mercaptoethanol) to achieve a final assay concentration of 4 nM, and 10 μl of diluted USP30 was added to the compound. Enzyme and compound were incubated for 30 min at room temp. Reactions were initiated by the addition of 50 nM of TAMRA labelled peptide linked to ubiquitin via an iso-peptide bond as fluorescence polarisation substrate. Reactions were read immediately after addition of substrate and following a 2-hour incubation at room temperature. Readings were performed on a Pherastar Plus (BMG Labtech). λ Excitation 540 nm; λ Emission 590 nm.

UCHL1 = target: T2, UCHL1 (Homo sapiens, UniProt P09936); assay: DUB biochemical IC50 assay, UCHL1
T2 sequence (P09936 1-223): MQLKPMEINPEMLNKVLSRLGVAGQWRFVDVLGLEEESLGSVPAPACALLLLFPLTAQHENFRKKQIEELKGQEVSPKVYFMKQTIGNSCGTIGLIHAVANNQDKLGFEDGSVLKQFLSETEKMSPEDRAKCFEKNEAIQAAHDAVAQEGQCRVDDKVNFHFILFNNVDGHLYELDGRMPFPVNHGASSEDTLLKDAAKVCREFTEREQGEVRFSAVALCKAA

[1] = test system: USP2, USP10, USP16, USP21, USP22, USP25, USP28, USP35, USP46; assay: DUB biochemical IC50 assays, nine DUBs; conditions: range over the nine DUBs; for IC50: Ref. Ex. C excl. USP22, Ref. Ex. D excl. USP2, 46
Cathepsin B = Cathepsin B (Homo sapiens, UniProt P07858); assay: Cathepsin IC50, cathepsin B; format: biochemical
Cathepsin K = target: T3, Cathepsin K (Homo sapiens, UniProt P43235); assay: Cathepsin IC50, cathepsin K; format: biochemical
T3 sequence (P43235 115-329): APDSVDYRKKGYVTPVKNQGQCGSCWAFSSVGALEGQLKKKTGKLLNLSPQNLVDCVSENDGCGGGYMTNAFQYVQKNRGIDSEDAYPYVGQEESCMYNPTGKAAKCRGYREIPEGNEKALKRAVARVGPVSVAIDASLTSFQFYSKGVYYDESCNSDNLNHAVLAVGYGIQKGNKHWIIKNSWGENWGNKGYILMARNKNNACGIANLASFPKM

Cathepsin L = Cathepsin L (Homo sapiens, UniProt P07711); assay: Cathepsin IC50, cathepsin L; format: biochemical
Cathepsin S = Cathepsin S (Homo sapiens, UniProt P25774); assay: Cathepsin IC50, cathepsin S; format: biochemical
Cathepsin V = Cathepsin V (Homo sapiens, UniProt O60911); assay: Cathepsin IC50, cathepsin V; format: biochemical
Cathepsins B, K, L, S, V = assay: Cathepsin IC50, range over B, K, L, S, V; format: biochemical; conditions: for Selectivity preference for USP30 v cathepsins: range over cathepsins B, K, L, S; for IC50: range over the five cathepsins
[2] = test system: HCT116 human colorectal carcinoma cells; assay: In vitro cytotoxicity (Cell Tox), alamarBlue; format: cell-based; conditions: for EC50: Homo sapiens, HCT-116, 96-hour continual compound exposure, alamarBlue
Description: There is also a need for compounds that have a favourable safety profile, which may be measured by a variety of standard in vitro and in vivo methods. A cell toxicity counter-screen may be used to assay the anti-proliferative/cytotoxic effect in a particular cell line (e.g. HCT116) by fluorometric detection of rezasurin (alamarBlue) to resofurin in response to mitochondrial activity.
In Vitro Cytotoxicity (Cell Tox): Measured in HCT116 human colorectal carcinoma cells using alamarBlue as the assay endpoint. Compound cytotoxicity was measured over a period of 96-hour continual compound exposure.

Sequence of Cathepsin L (P07711 114-333, species assumed): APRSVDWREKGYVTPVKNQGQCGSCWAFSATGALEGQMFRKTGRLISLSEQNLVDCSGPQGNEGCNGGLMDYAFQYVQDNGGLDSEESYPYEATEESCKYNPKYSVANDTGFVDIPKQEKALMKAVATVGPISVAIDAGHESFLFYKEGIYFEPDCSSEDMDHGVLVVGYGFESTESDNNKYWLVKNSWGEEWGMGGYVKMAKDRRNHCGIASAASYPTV
Sequence of Cathepsin S (P25774 115-331, species assumed): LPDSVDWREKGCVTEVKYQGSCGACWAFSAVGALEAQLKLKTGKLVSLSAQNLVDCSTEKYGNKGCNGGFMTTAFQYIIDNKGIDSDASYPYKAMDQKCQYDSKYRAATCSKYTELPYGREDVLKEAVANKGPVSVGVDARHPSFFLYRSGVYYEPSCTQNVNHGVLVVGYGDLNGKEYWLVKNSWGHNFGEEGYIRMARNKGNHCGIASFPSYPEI
Sequence of Cathepsin V (O60911 114-334, species assumed): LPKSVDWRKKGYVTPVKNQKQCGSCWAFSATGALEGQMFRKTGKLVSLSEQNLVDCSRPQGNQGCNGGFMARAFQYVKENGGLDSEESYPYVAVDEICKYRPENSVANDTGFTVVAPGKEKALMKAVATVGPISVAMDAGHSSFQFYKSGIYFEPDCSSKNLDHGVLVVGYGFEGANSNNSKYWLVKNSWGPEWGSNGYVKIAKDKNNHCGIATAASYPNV

| SMILES | IC50 (USP30) [µM] | fold more potent against USP30 than Reference Example A (USP30; biochemical assay) [fold] | fold more potent against USP30 than Reference Example E (USP30; biochemical assay) [fold] | fold more potent against USP30 than Reference Example F (USP30; biochemical assay) [fold] | fold more potent against USP30 than Reference Example G (USP30; biochemical assay) [fold] | DUB selectivity preference for USP30 v UCHL1 (UCHL1) | IC50 (UCHL1) [µM] | DUB selectivity preference for USP30 v 9 DUBs [1] | IC50 [1] [µM] | IC50 (Cathepsin B) [µM] | IC50 (Cathepsin K) [µM] | IC50 (Cathepsin L) [µM] | IC50 (Cathepsin S) [µM] | IC50 (Cathepsin V) [µM] | Selectivity preference for USP30 v cathepsins (Cathepsins B, K, L, S, V) | IC50 (Cathepsins B, K, L, S, V) [µM] | Cell Tox EC50/USP30 IC50 [2] | EC50 [2] [µM] | further results |
| --- | --- | --- | --- | --- | --- | --- | --- | --- | --- | --- | --- | --- | --- | --- | --- | --- | --- | --- | --- |
| C[C@@H]1C[C@@H](NC(=O)c2nnc(-c3cccc(C#N)c3)o2)CN1C#N [Example 1, N-((3R,5R)-1-Cyano-5-methylpyrrolidin-3-yl)-5-(3-cyanophenyl)-1,3,4-oxadiazole-2-carboxamide] | 0.029 | 2.4 | 10.7 | 24 | 152 | 10300 | > 300 | 200-6900 | 5.8 to 202 | 154 | 26.2 | 30.9 | > 300 | 176 | 900-10300 | 26.2 to 300 | >1000 | > 30 | fold more selective for USP30 over cathepsin L than A (Cathepsin L; v Reference Example A): 27 fold; fold more selective for USP30 over cathepsin L than B (Cathepsin L; v Reference Example B): 59 fold; fold more selective for USP30 over cathepsin L than C (Cathepsin L; v Reference Example C): 18 fold; fold more selective for USP30 over cathepsin L than D (Cathepsin L; v Reference Example D): 19 fold; fold more selective for USP30 over cathepsin L than E (Cathepsin L; v Reference Example E): 333 fold; fold more selective for USP30 over cathepsin L than F (Cathepsin L; v Reference Example F): 3135 fold |
| N#Cc1cccc(-c2nnc(C(=O)N[C@@H]3C[C@@H](CF)N(C#N)C3)o2)c1 [Example 3, N-((3R,5S)-1-Cyano-5-(fluoromethyl)pyrrolidin-3-yl)-5-(3-cyanophenyl)-1,3,4-oxadiazole-2-carboxamide] | 0.013 | 5.4 | 24 | 54 | 338 | 15400 | 200 | 338-23000 | ≥ 4.4 | 29.4 | 18.8 | 9.9 | 256 | 42.9 | 760-19700 | 9.9 to 256 | >2300 | > 30 | fold more potent against USP30 than Reference Example B (USP30; biochemical assay, v Reference Example B): 3.4 fold; fold more potent against USP30 than Reference Example C (USP30; biochemical assay, v Reference Example C): 2 fold; fold more potent against USP30 than Reference Example D (USP30; biochemical assay, v Reference Example D): 3.2 fold |
